Data reported in US9896421B2, “Compound having skin-whitening, anti-oxidizing and PPAR activities and medical use thereof” (Pusan National University Industry-University Cooperation …, priority 2011, dated 2018).

How the values were obtained:
[1] = test system: Mushroom-derived tyrosinase; assay: Tyrosinase inhibitory effect; type: biochemical; conditions: 1 mM L-tyrosin, pH 6.5, 25° C., 30 minutes, OD492; compared with kojic acid (positive control); FIGS. 4 to 6
Experimental: Mushroom-derived tyrosinase was sued as an enzyme source in the present experiment. Tyrosinase activities were assayed according to a slightly-modified conventionally known method (Life Sci., 1999, 65, 241-246). In detail, 20 μl of a mushroom-derived tyrosinase (1000 units) aqueous solution was added to 96-well microplate (Nunc, Denmark) to prepare 200 μl of the total volume of assay mixture containing 1 mM L-tyrosin solution and 50 mM phosphate buffer solution (pH 6.5). The assay mixture was cultured at a temperature of 25° C. for 30 minutes. After the culturing, an amount of the produced DOPA chrome in the reaction mixture was measured by using a microplate reader (Hewlett Packard) at 492 nm (OD492).

`COc1cc(/C=C2\NC(=S)NC2=O)cc(OC)c1OC` [Compound 109, (Z)-2-thioxo-5-(3,4,5-trimethoxybenzylidene)imidazolidin-4-one] gave a melting point of 264 to 266.6 °C.

Compound `COc1ccc(/C=C2\CC(=O)NC2=O)c(OC)c1` [Compound 45, (E)-3-(2,4-dimethoxybenzylidene)pyrrolidine-2,5-dione] has a melting point of 245.7 to 246.6 °C.

Work on `[H]/N=C1/NC(=O)C(=Cc2ccc(OC)c(O)c2)N1C` [Compound 78, (Z)-5-(3-hydroxy-4-methoxybenzylidene)-2-imino-1-methylimidazolidin-4-one] yielded a melting point of 276.1 to 277.3 °C.

`O=C1C/C(=C\c2ccccc2O)C(=O)N1` [Compound 46, (E)-3-(2-hydroxybenzylidene)pyrrolidine-2,5-dione] gave a melting point of 271.3 to 272.1 °C.

`[H]/N=C1/NC(=O)C(=Cc2ccc(O)c(OC)c2)N1C` [Compound 76, (Z)-5-(4-hydroxy-3-methoxybenzylidene)-2-imino-1-methylimidazolidin-4-one] gave a melting point of 254.2 to 255.6 °C.

`COc1ccc(C=C2C(=O)NC(=O)NC2=O)cc1OC` showed a melting point greater than 300 °C.

With `[H]/N=C1/NC(=O)C(=Cc2ccccc2O)S1` [Compound 120, (Z)-5-(2-hydroxybenzylidene)-2-iminothiazolidin-4-one] the melting point was 210.1 to 211.5 °C.

In the case of `[H]/N=C1/NC(=O)C(=Cc2cc(OC)c(O)c(OC)c2)S1` [Compound 122, (Z)-5-(4-hydroxy-3,5-dimethoxybenzylidene)-2-iminothiazolidin-4-one], the melting point is reported as 254.3 to 256.6 °C.

`[H]/N=C1/NC(=O)C(=Cc2cc(O)cc(O)c2)S1` [Compound 118, (Z)-5-(3,5-dihydroxybenzylidene)-2-iminothiazolidin-4-one] gave a melting point greater than 300 °C.

For `COc1ccc(/C=C2\NC(=S)NC2=O)cc1OC` [Compound 105, (Z)-5-(3,4-dimethoxybenzylidene)-2-thioxoimidazolidin-4-one], the melting point was 236.2 to 238 °C.

Work on `COc1cc(C=C2C(=O)NC(=O)NC2=O)cc(OC)c1OC` yielded a melting point of 274.8 to 275.4 °C.

In the case of `O=C1NC(=S)NC(=O)C1=Cc1ccc(O)cc1O`, the melting point is reported as greater than 300 °C.

`COc1cc(C=C2C(=O)NC(=S)NC2=O)ccc1O` gave a melting point of 260.9 to 263.6 °C.

`[H]/N=C1/NC(=O)C(=Cc2ccc(OC)cc2OC)N1C` [Compound 81, (Z)-5-(2,4-dimethoxybenzylidene)-2-imino-1-methylimidazolidin-4-one] showed a melting point of 244.6 to 245.6 °C.

For `COc1cc(/C=C2\CC(=O)NC2=O)cc(OC)c1OC` [Compound 47, (E)-3-(3,4,5-trimethoxybenzylidene)pyrrolidine-2,5-dione], the melting point was 191.2 to 193.6 °C.

Work on `[H]/N=C1/NC(=O)C(=Cc2ccc(OC)cc2OC)S1` [Compound 119, (Z)-5-(2,4-dimethoxybenzylidene)-2-iminothiazolidin-4-one] yielded a melting point of 249.1 to 250.7 °C.

`CCOc1cc(C=C2C(=O)NC(=S)NC2=O)ccc1O` gave a melting point of 285 to 287.3 °C.

Work on `O=C1NC(=O)/C(=C/c2cc(O)cc(O)c2)S1` [Compound 9, (Z)-5-(3,5-dihydroxybenzylidene)thiazolidine-2,4-dione] yielded a melting point of 288.4 to 290.2 °C.

With `COc1ccc(/C=C2\NC(=S)NC2=O)c(OC)c1` [Compound 107, (Z)-5-(2,4-dimethoxybenzylidene)-2-thioxoimidazolidin-4-one] the melting point was 237.1 to 238.6 °C.

`COc1ccc(/C=C2\CC(=O)NC2=O)cc1OC` [Compound 43, (E)-3-(3,4-dimethoxybenzylidene)pyrrolidine-2,5-dione] gave a melting point of 237.1 to 238.4 °C.

`COc1ccc(/C=C2\NC(=S)NC2=O)cc1` [Compound 104, (Z)-5-(4-methoxybenzylidene)-2-thioxoimidazolidin-4-one] showed a melting point of 266.9 to 267.5 °C.

`COc1cc(/C=C2\SC(=N)NC2=O)cc(OC)c1OC` [Compound 121, (Z)-2-Imino-5-(3,4,5-trimethoxybenzylidene)thiazolidin-4-one] showed a melting point of 253.3 to 254.8 °C.

`COc1cc(/C=C2\NC(=O)NC2=O)cc(OC)c1O` [Compound 151, (Z)-5-(4-hydroxy-3,5-dimethoxybenzylidene)imidazolidine-2,4-dione] gave a melting point of 266 to 268.5 °C.

For `[H]/N=C1/NC(=O)C(=Cc2ccc(OC)c(O)c2)S1` [Compound 115, (Z)-5-(3-hydroxy-4-methoxybenzylidene)-2-iminothiazolidin-4-one], the tyrosinase inhibitory activities [1] was “better tyrosinase inhibitory activities than a kojic acid”.

For `COc1cc(/C=C2\SC(=O)NC2=O)cc(OC)c1OC` [Compound 12, (Z)-5-(3,4,5-trimethoxybenzylidene)thiazolidine-2,4-dione], the melting point was 179.1 to 181 °C.

Work on `COc1cc(/C=C2\NC(=O)NC2=O)cc(OC)c1OC` [Compound 34, (Z)-5-(3,4,5-trimethoxybenzylidene)imidazolidine-2,4-dione] yielded a melting point of 266.3 to 267.2 °C.

With `CCOc1cc(C=C2C(=O)NC(=O)NC2=O)ccc1O` the melting point was 244.7 to 246.1 °C.

Compound `[H]/N=C1/NC(=O)C(=Cc2ccc(OC)c(OC)c2)N1C` [Compound 80, (Z)-5-(3,4-dimethoxybenzylidene)-2-imino-1-methylimidazolidin-4-one] has a melting point of 257.1 to 259 °C.

Work on `COc1ccc(/C=C2\CC(=O)NC2=O)cc1` [Compound 42, (E)-3-(4-methoxybenzylidene)pyrrolidine-2,5-dione] yielded a melting point of 243.4 to 245.7 °C.

In the case of `COc1cc(C=C2C(=O)NC(=S)NC2=O)cc(OC)c1O`, the melting point is reported as greater than 300 °C.

Compound `O=C1NC(=O)/C(=C/c2ccccc2O)N1` [Compound 33, (Z)-5-(2-hydroxybenzylidene)imidazolidine-2,4-dione] has a melting point of 265.5 to 268.4 °C.

Work on `COc1ccc(/C=C2\SC(=O)NC2=O)c(OC)c1` [Compound 10, (Z)-5-(2,4-dimethoxybenzylidene)thiazolidine-2,4-dione] yielded a melting point of 254.7 to 255.6 °C.

Work on `COc1ccc(C=C2C(=O)NC(=O)NC2=O)c(OC)c1` yielded a melting point of 291.1 to 291.7 °C.

Compound `COc1ccc(C=C2C(=O)NC(=S)NC2=O)cc1O` has a melting point of 278.9 to 280.5 °C.

Compound `[H]/N=C1/NC(=O)C(=Cc2ccc(OC)c(OC)c2)S1` [Compound 117, (Z)-5-(3,4-dimethoxybenzylidene)-2-iminothiazolidin-4-one] has a melting point of 274.2 to 276.3 °C.

`COc1ccc(C=C2C(=O)NC(=O)NC2=O)cc1O` showed a melting point of 279.3 to 281.4 °C.

Work on `[H]/N=C1/NC(=O)C(=Cc2ccc(O)cc2)N1C` [Compound 74, (Z)-5-(4-hydroxybenzylidene)-2-imino-1-methylimidazolidin-4-one] yielded a melting point of 285.9 to 288 °C.

`COc1ccc(/C=C2\SC(=S)NC2=O)c(OC)c1` [Compound 70, (Z)-5-(2,4-dimethoxybenzylidene)-2-thioxothiazolidin-4-one] gave a melting point of 272.7 to 275.2 °C.

With `O=C1C/C(=C\c2cc(O)cc(O)c2)C(=O)N1` [Compound 44, (E)-3-(3,5-dihydroxybenzylidene)pyrrolidine-2,5-dione] the melting point was 275.2 to 277.8 °C.

Compound `COc1cc(/C=C2\CC(=O)NC2=O)ccc1O` [Compound 39, (E)-3-(4-hydroxy-3-methoxybenzylidene)pyrrolidine-2,5-dione] has a melting point of 243.5 to 245.7 °C.

In the case of `[H]/N=C1/NC(=O)C(=Cc2ccc(O)c(O)c2)S1` [Compound 112, (Z)-5-(3,4-dihydroxybenzylidene)-2-iminothiazolidin-4-one], the melting point is reported as greater than 300 °C.

With `COc1ccc(C=C2C(=O)NC(=S)NC2=O)cc1OC` the melting point was 269.9 to 271.7 °C.

For `O=C1NC(=O)C(=Cc2ccc(O)cc2O)C(=O)N1` [Compound 16, 5-(2,4-dihyroxybenzylidene)pyrimidine-2,4,6(1H,3H,5H)-trione], the tyrosinase inhibitory activities [1] was “better tyrosinase inhibitory activities than a kojic acid”.

Compound `CCOc1cc(/C=C2\CC(=O)NC2=O)ccc1O` [Compound 40, (E)-3-(3-ethoxy-4-hydroxybenzylidene)pyrrolidine-2,5-dione] has a melting point of 222.3 to 224.1 °C.

`COc1cc(C=C2C(=O)NC(=S)NC2=O)cc(OC)c1OC` gave a melting point of 258.9 to 260.7 °C.

In the case of `O=C1NC(=S)NC(=O)C1=Cc1ccccc1O`, the melting point is reported as 250.6 to 251.4 °C.

In the case of `CCOc1cc(/C=C2\NC(=O)NC2=O)ccc1O` [Compound 28, (Z)-5-(3-ethoxy-4-hydroxybenzylidene)imidazolidine-2,4-dione], the melting point is reported as 253 to 255.4 °C.

`O=C1NC(=O)/C(=C/c2ccc(O)cc2)N1` [Compound 25, (Z)-5-(4-hydroxybenzylidene)imidazolidine-2,4-dione] showed a melting point greater than 300 °C.

For `COc1ccc(/C=C2\NC(=O)NC2=O)c(OC)c1` [Compound 32, (Z)-5-(2,4-dimethoxybenzylidene)imidazolidine-2,4-dione], the melting point was 234.1 to 237.2 °C.

In the case of `O=C1NC(=O)/C(=C/c2ccc(O)cc2)S1` [Compound 1, (Z)-5-(4-hydroxybenzylidene)thiazolidine-2,4-dione], the tyrosinase inhibitory activities [1] is reported as “better tyrosinase inhibitory activities than a kojic acid”.

For `COc1ccc(/C=C2/C(=O)NC(=N)N2C)cc1` [Compound 79, (Z)-2-Imino-5-(4-methoxybenzylidene)-1-methylimidazolidin-4-one], the melting point was 252.1 to 255 °C.

`COc1ccc(C=C2C(=O)NC(=S)NC2=O)c(OC)c1` showed a melting point of 294.1 to 295.4 °C.

In the case of `[H]/N=C1/NC(=O)C(=Cc2ccc(O)c(OCC)c2)N1C` [Compound 77, (Z)-5-(3-ethoxy-4-hydroxybenzylidene)-2-imino-1-methylimidazolidin-4-one], the melting point is reported as 254.2 to 255.6 °C.

Compound `COc1cc(/C=C2\CC(=O)NC2=O)cc(OC)c1O` [Compound 48, (E)-3-(4-hydroxy-3,5-dimethoxybenzylidene)pyrrolidine-2,5-dione] has a melting point of 236.7 to 237.7 °C.
